Measured values: PubChem BioAssay AID330 (DTP/NCI, 2004)
Where “and” joins values, the source holds several entries; their conditions need not be identical. Equal values may be shown once. Inconclusive results and toxic doses are left out.

System: P388 leukemia ip, CD2F1 mice, survival T/C
Experiment: NCI In Vivo Anticancer Drug Screen. Data for tumor model P388 Leukemia (intraperitoneal) in CD2F1 (CDF1) mice
Settings: endpoint: median survival time, higher = longer survival
Method in brief: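 Mice carrying the transplanted tumor received test compound or vehicle. Survival was recorded in each group, and the value is the treated-group measurement divided by that of the vehicle-treated control group.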

[1] = dose: 50.0 mg/kg/injection, schedule: Q01DX009 (ip), vehicle: Klucel (hydroxypropylcellulose) (HPC)
[2] = dose: 100.0 mg/kg/injection, schedule: Q01DX009 (ip), vehicle: Klucel (hydroxypropylcellulose) (HPC)
[3] = dose: 60.0 mg/kg/injection, schedule: Q01DX005 (ip), vehicle: saline with Tween-80
[4] = dose: 120.0 mg/kg/injection, schedule: Q01DX005 (ip), vehicle: saline with Tween-80
[5] = dose: 100.0 mg/kg/injection, schedule: Q04DX002 (ip), vehicle: saline with Tween-80
[6] = dose: 50.0 mg/kg/injection, schedule: Q01DX005 (ip), vehicle: Klucel (hydroxypropylcellulose) (HPC)
[7] = dose: 100.0 mg/kg/injection, schedule: Q01DX005 (ip), vehicle: Klucel (hydroxypropylcellulose) (HPC)
[8] = dose: 200.0 mg/kg/injection, schedule: Q01DX005 (ip), vehicle: Klucel (hydroxypropylcellulose) (HPC)
[9] = dose: 6.25 mg/kg/injection, schedule: Q01DX009 (ip), vehicle: other
[10] = dose: 12.5 mg/kg/injection, schedule: Q01DX009 (ip), vehicle: other

Structure (SMILES): O=C1NC(=O)C23CCCCc4cccc(c42)C(=O)C13 (configuration not stated)
- T/C (dose: 25.0 mg/kg/injection, schedule: Q01DX005 (ip), vehicle: water): 100 % of control
- T/C (dose: 50.0 mg/kg/injection, schedule: Q01DX005 (ip), vehicle: water): 99 % of control
- T/C (dose: 100.0 mg/kg/injection, schedule: Q01DX005 (ip), vehicle: water): 103 % of control
- T/C (dose: 200.0 mg/kg/injection, schedule: Q01DX005 (ip), vehicle: water): 100 % of control

Structure (SMILES): COC(=O)C1OC(SCCN)C(O)C(O)C1O (configuration not stated)
- T/C (dose: 50.0 mg/kg/injection, schedule: Q01DX009 (ip), vehicle: water): 100 % of control
- T/C (dose: 100.0 mg/kg/injection, schedule: Q01DX009 (ip), vehicle: water): 102 % of control
- T/C (dose: 200.0 mg/kg/injection, schedule: Q01DX009 (ip), vehicle: water): 91 % of control

Structure (SMILES): CCn1c(=O)c2c(nc(Cl)n2C2OC(COC(C)=O)C(OC(C)=O)C(OC(C)=O)C2OC(C)=O)n(CC)c1=O (configuration not stated)
- T/C (dose: 25.0 mg/kg/injection, schedule: Q01DX009 (ip), vehicle: Klucel (hydroxypropylcellulose) (HPC)): 100 % of control
- T/C [1]: 99 % of control
- T/C [2]: 99 % of control

Structure (SMILES): COc1cc(C[C@@H]2COC(=O)[C@]2(O)Cc2ccc(O)c(OC)c2)ccc1O
- T/C (dose: 1.25 mg/kg/injection, schedule: Q01DX009 (ip), vehicle: alcohol): 100 % of control
- T/C (dose: 2.5 mg/kg/injection, schedule: Q01DX009 (ip), vehicle: alcohol): 113 % of control
- T/C (dose: 5.0 mg/kg/injection, schedule: Q01DX009 (ip), vehicle: alcohol): 104 % of control
- T/C (dose: 8.0 mg/kg/injection, schedule: Q01DX009 (ip), vehicle: saline + alcohol): 124 % of control
- T/C (dose: 16.0 mg/kg/injection, schedule: Q01DX009 (ip), vehicle: saline + alcohol): 154 % of control

Structure (SMILES): CC1=C(Br)S(=O)(=O)N(c2ccccc2)C(CBr)=C1Br
- T/C [3]: 100 % of control
- T/C [4]: 91 % of control
- T/C (dose: 240.0 mg/kg/injection, schedule: Q01DX005 (ip), vehicle: saline with Tween-80): 93 % of control

Structure (SMILES): c1ccc(-c2ccccc2C2=NC2)c(C2=NC2)c1
- T/C (dose: 25.0 mg/kg/injection, schedule: Q04DX002 (ip), vehicle: saline with Tween-80): 99 % of control
- T/C (dose: 50.0 mg/kg/injection, schedule: Q04DX002 (ip), vehicle: saline with Tween-80): 100 % of control
- T/C [5]: 99 % of control and 94 % of control

Structure (SMILES): O=C(O)CCC(=O)CCC(=O)c1ccc(O)c2ncccc12
- T/C [6]: 92 % of control
- T/C [7]: 105 % of control
- T/C [8]: 111 % of control

Structure (SMILES): CCOC(=O)C(=[N+]=[N-])C(=O)OCC12CCC=C1CC1(CC2)OCCO1 (configuration not stated)
- T/C (dose: 50.0 mg/kg/injection, schedule: Q01DX005 (ip), vehicle: saline with Tween-80): 101 % of control
- T/C (dose: 100.0 mg/kg/injection, schedule: Q01DX005 (ip), vehicle: saline with Tween-80): 108 % of control
- T/C (dose: 200.0 mg/kg/injection, schedule: Q01DX005 (ip), vehicle: saline with Tween-80): 102 % of control

Structure (SMILES): COc1cc(NS(C)(=O)=O)ccc1Nc1c2ccc([N+](=O)[O-])cc2nc2c(C)cccc12
- T/C (dose: 3.0 mg/kg/injection, schedule: Q01DX009 (ip), vehicle: saline with Tween-80): 272 % of control
- T/C (dose: 3.0 mg/kg/injection, schedule: Q04DX003 (ip), vehicle: saline with Tween-80): 181 % of control
- T/C (dose: 6.0 mg/kg/injection, schedule: Q01DX009 (ip), vehicle: saline with Tween-80): 100 % of control
- T/C (dose: 6.0 mg/kg/injection, schedule: Q04DX003 (ip), vehicle: saline with Tween-80): 209 % of control
- T/C (dose: 7.9 mg/kg/injection, schedule: Q04DX003 (ip), vehicle: saline with Tween-80): 218 % of control
- T/C (dose: 12.0 mg/kg/injection, schedule: Q04DX003 (ip), vehicle: saline with Tween-80): 181 % of control and 231 % of control

Structure (SMILES): Cn1c2c(c(=O)n(C)c1=O)CS(=O)c1ccccc1N2 (configuration not stated)
- T/C (dose: 25.0 mg/kg/injection, schedule: Q01DX005 (ip), vehicle: suspension in saline): 103 % of control
- T/C (dose: 50.0 mg/kg/injection, schedule: Q01DX005 (ip), vehicle: suspension in saline): 96 % of control
- T/C (dose: 100.0 mg/kg/injection, schedule: Q01DX005 (ip), vehicle: suspension in saline): 96 % of control
- T/C (dose: 200.0 mg/kg/injection, schedule: Q01DX005 (ip), vehicle: suspension in saline): 97 % of control

Structure (SMILES): CCCCCc1nc(N)nc(-c2nc(N)nc(CCCCC)c2C)c1C
- T/C (dose: 60.0 mg/kg/injection, schedule: Q01DX005 (ip), vehicle: saline): 96 % of control
- T/C (dose: 120.0 mg/kg/injection, schedule: Q01DX005 (ip), vehicle: saline): 100 % of control

Structure (SMILES): COC1CC(C)(O)Cc2cc3c(c(O)c21)C(=O)c1c(O)cc2c(c1C3=O)OC1OC2(C)C(O)C(N(C)C)C1O (configuration not stated)
- T/C [9]: 158 % of control
- T/C [10]: 176 % of control
- T/C (dose: 25.0 mg/kg/injection, schedule: Q01DX009 (ip), vehicle: other): 168 % of control

Structure (SMILES): COc1cc(C)ccc1C1=NC(C)(c2ccc(C)cc2OC)NC1=S (configuration not stated)
- T/C (dose: 37.5 mg/kg/injection, schedule: Q01DX009 (ip), vehicle: Klucel (hydroxypropylcellulose) (HPC)): 124 % of control
- T/C (dose: 75.0 mg/kg/injection, schedule: Q01DX009 (ip), vehicle: Klucel (hydroxypropylcellulose) (HPC)): 120 % of control

Structure (SMILES): Cc1ccc(Br)c(C(O)(C(F)(F)F)C(F)(F)F)c1C
- T/C [1]: 107 % of control
- T/C [2]: 106 % of control

Structure (SMILES): CC1(C)CCC2(C(=O)O)CCC3(C)C(=CCC4C5(C)CC(O)C(O)C(C)(C(=O)O)C5CCC43C)C2C1 (configuration not stated)
- T/C (dose: 1.0 mg/kg/injection, schedule: Q01DX005 (ip), vehicle: saline): 96 % of control
- T/C (dose: 2.03 mg/kg/injection, schedule: Q01DX005 (ip), vehicle: saline): 94 % of control
- T/C (dose: 4.06 mg/kg/injection, schedule: Q01DX005 (ip), vehicle: saline): 87 % of control
- T/C (dose: 8.12 mg/kg/injection, schedule: Q01DX005 (ip), vehicle: saline): 90 % of control

Structure (SMILES): CCCCSc1ccc(NN=O)nc1
- T/C (dose: 1.56 mg/kg/injection, schedule: Q01DX009 (ip), vehicle: water): 118 % of control
- T/C (dose: 6.25 mg/kg/injection, schedule: Q01DX009 (ip), vehicle: water): 151 % of control

Structure (SMILES): CCCCC(CC)CS(=O)(=O)OCCCCOS(=O)(=O)CC(CC)CCCC (configuration not stated)
- T/C [6]: 101 % of control
- T/C [7]: 105 % of control
- T/C [8]: 108 % of control

Structure (SMILES): O=C1c2ccccc2C(=O)N1c1cccc(CBr)c1
- T/C (dose: 12.5 mg/kg/injection, schedule: Q01DX005 (ip), vehicle: Klucel (hydroxypropylcellulose) (HPC)): 102 % of control
- T/C (dose: 25.0 mg/kg/injection, schedule: Q01DX005 (ip), vehicle: Klucel (hydroxypropylcellulose) (HPC)): 114 % of control
- T/C [6]: 113 % of control

Structure (SMILES): COc1cccc2c1C(=O)c1c(O)c3c(c(O)c1C2=O)C/C(=N/O)CC3OC1CC(NC(=O)C(F)(F)F)C(O)C(C)O1 (configuration not stated)
- T/C (dose: 1.56 mg/kg/injection, schedule: Q01DX009 (ip), vehicle: other): 106 % of control
- T/C (dose: 3.13 mg/kg/injection, schedule: Q01DX009 (ip), vehicle: other): 88 % of control
- T/C [9]: 92 % of control
- T/C [10]: 110 % of control

Structure (SMILES): C=CCCN=C(SC)SC
- T/C [3]: 104 % of control
- T/C [4]: 114 % of control

Structure (SMILES): CCSC1=C(SCC)C1SCC
- T/C (dose: 12.5 mg/kg/injection, schedule: Q04DX003 (ip), vehicle: Klucel (hydroxypropylcellulose) (HPC)): 107 % of control
- T/C (dose: 25.0 mg/kg/injection, schedule: Q04DX003 (ip), vehicle: Klucel (hydroxypropylcellulose) (HPC)): 107 % of control
- T/C (dose: 50.0 mg/kg/injection, schedule: Q04DX003 (ip), vehicle: Klucel (hydroxypropylcellulose) (HPC)): 121 % of control
- T/C (dose: 100.0 mg/kg/injection, schedule: Q04DX003 (ip), vehicle: Klucel (hydroxypropylcellulose) (HPC)): 113 % of control

Structure (SMILES): O=C(O)C1CC(O)CN1 (configuration not stated)
- T/C (dose: 50.0 mg/kg/injection, schedule: Q01DX005 (ip), vehicle: saline): 106 % of control
- T/C (dose: 100.0 mg/kg/injection, schedule: Q01DX005 (ip), vehicle: saline): 106 % of control
- T/C (dose: 200.0 mg/kg/injection, schedule: Q01DX005 (ip), vehicle: saline): 110 % of control

Structure (SMILES): C=C1C(=O)OC2(C)CCC1CC1OC1(C)CC/C=C(\C)CCC2OC(C)=O (configuration not stated)
- T/C (dose: 37.5 mg/kg/injection, schedule: Q01DX001 (ip), vehicle: Klucel (hydroxypropylcellulose) (HPC)): 94 % of control
- T/C (dose: 75.0 mg/kg/injection, schedule: Q01DX001 (ip), vehicle: Klucel (hydroxypropylcellulose) (HPC)): 92 % of control
- T/C (dose: 150.0 mg/kg/injection, schedule: Q01DX001 (ip), vehicle: Klucel (hydroxypropylcellulose) (HPC)): 91 % of control
- T/C (dose: 300.0 mg/kg/injection, schedule: Q01DX001 (ip), vehicle: Klucel (hydroxypropylcellulose) (HPC)): 88 % of control

Structure (SMILES): O=C(Cc1cc(-c2ccccc2)nc(=O)[nH]1)c1ccccc1
- T/C [5]: 97 % of control
- T/C (dose: 200.0 mg/kg/injection, schedule: Q04DX002 (ip), vehicle: saline with Tween-80): 93 % of control
